“And” between values parts separate entries of the source, which are not always exact repeats. Equal values may be shown once.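 Following 48 hours of exposure in 96-well plates, responses at five concentrations were used to interpolate endpoints linearly. At the GI50, growth is halved. The concentration for full growth arrest is given as TGI.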

One experiment has as its system NCI-H460 lung. Put plainly: NCI anticancer screen, dose series, 48 h.
`C=C(C)[C@@H]1CC[C@]2(COCCCN)CC[C@]3(C)[C@H](CC[C@@H]4[C@@](C)(CCCNCCCN)[C@H](C(=C)C)CC[C@]43C)[C@@H]12`: the GI50 was 1.8 µM and the TGI was 3.44 µM.

With `O=C(O)CSCCc1ccccc1`, the TGI is above 100 µM.

For the molecule `CCOC1C(Br)Cn2c(=O)c3cc4ccccc4cc3c(=O)n2C1C` (centres undefined), the TGI was above 100 µM.

`COc1ccc(C(C#N)NC23CC4CC(CC(C4)C2)C3)cc1` (centres undefined) yielded a TGI above 100 µM.

`COc1ccc(NC(=O)CC/C(CC(=O)c2ccco2)=N/NC(=O)C(N)=O)cc1` registered a TGI above 100 µM.

`CC(C)(C)c1cc([N+](=O)[O-])cc([N+](=O)[O-])c1O` had a TGI above 10 µM.

With `Cc1cc(N(CC(C)Br)CC(C)Br)ccc1N=Nc1ccccc1C(=O)O` (centres undefined), the TGI came out at 11.7 µM.

Regarding `CCN(CC)CCCC(CCl)Nc1ccnc2cc(Cl)ccc12` (centres undefined), the GI50 is 19.6 µM and 24.3 µM; the TGI was 56.4 µM and > 100 µM.

As for `COc1ccc2c(c1)C(=O)/C(=C/c1cccc(OCC(=O)c3ccccc3)c1)O2`, the GI50 is 14.4 µM and the TGI was 36 µM.

`O=C(O)c1ccc(CN2CCC(CN[C@@H]3C[C@H]3c3ccccc3)CC2)cc1`: the GI50 is above 100 µM and the TGI was above 100 µM.

For the molecule `O=C1NC(=S)S/C1=C/c1ccc2c(c1)OCO2`, the GI50 was above 100 µM and the TGI is above 100 µM.

As to `O=C1C=CC(=O)C2C1C1(Cl)C(Cl)=C(Cl)C2(Cl)C1(Cl)Cl` (centres undefined), the GI50 is 3.06 µM and the TGI is 9.04 µM.

For the molecule `C=CC(=O)N1CCC(Oc2cc3c(Nc4ccc(Cl)c(Cl)c4F)ncnc3cc2OC)CC1`, the GI50 was 11.1 µM and 5.88 µM; the TGI was 33.2 µM and > 10 µM.

Turning to `CC(=O)OC1OC([C@H]2c3cccc(O)c3C(=O)c3c(O)cc(C)cc32)C(O)C(O)C1O` (some centres undefined), the GI50 was 0.105 µM and the TGI was 1.41 µM.

Molecule `CNC(=O)OCc1c(COC(=O)NC)c(-c2ccc(-c3ccccc3)cc2)n(C)c1C` returned a TGI of 12.2 µM.

Regarding `COc1cccc2c1C(=N)c1c(O)c3c(c(O)c1C2=O)C[C@@](O)(C(C)=O)C[C@@H]3O[C@H]1C[C@H](N)[C@H](O)[C@H](C)O1`, the GI50 was 0.0472 µM and the TGI turned out to be 0.833 µM.

As for `Cc1cn(-c2cc(NC(=O)c3cccc(C#Cc4cccc5[nH]nc(N)c45)c3)cc(C(F)(F)F)c2)cn1`, the GI50 is 4.13 µM and the TGI is 16.7 µM.

As to `CN(C)CCC(=O)N1C/C(=C\c2ccc(Cl)c(Cl)c2)C(=O)/C(=C/c2ccc(Cl)c(Cl)c2)C1`, the TGI turned out to be 1.38 µM.

Another experiment concerns RXF 393 renal. Put plainly: NCI anticancer screen, dose series, 48 h.
As for `C=C(C)[C@@H]1CC[C@]2(COCCCN)CC[C@]3(C)[C@H](CC[C@@H]4[C@@](C)(CCCNCCCN)[C@H](C(=C)C)CC[C@]43C)[C@@H]12`, the GI50 was 1.59 µM and the TGI is 2.98 µM.

With `O=C(O)CSCCc1ccccc1`, the TGI was above 100 µM.

On to `CCOC1C(Br)Cn2c(=O)c3cc4ccccc4cc3c(=O)n2C1C` (centres undefined), for which the TGI was above 100 µM.

For `COc1ccc(C(C#N)NC23CC4CC(CC(C4)C2)C3)cc1` (centres undefined), the TGI was above 100 µM.

The molecule `COc1ccc(NC(=O)CC/C(CC(=O)c2ccco2)=N/NC(=O)C(N)=O)cc1` gave a TGI above 100 µM.

`CC(C)(C)c1cc([N+](=O)[O-])cc([N+](=O)[O-])c1O` registered a TGI above 10 µM.

`Cc1cc(N(CC(C)Br)CC(C)Br)ccc1N=Nc1ccccc1C(=O)O` (centres undefined): the TGI was 4.3 µM.

As to `CCN(CC)CCCC(CCl)Nc1ccnc2cc(Cl)ccc12` (centres undefined), the GI50 is 4.95 µM and 10.6 µM; the TGI is 24.5 µM and > 49.1 µM.

As to `COc1ccc2c(c1)C(=O)/C(=C/c1cccc(OCC(=O)c3ccccc3)c1)O2`, the GI50 was 3.26 µM and the TGI was 8.01 µM.

For `O=C(O)c1ccc(CN2CCC(CN[C@@H]3C[C@H]3c3ccccc3)CC2)cc1`, the GI50 is above 100 µM and the TGI is above 100 µM.

Regarding `O=C1NC(=S)S/C1=C/c1ccc2c(c1)OCO2`, the GI50 is above 100 µM and the TGI was above 100 µM.

With `O=C1C=CC(=O)C2C1C1(Cl)C(Cl)=C(Cl)C2(Cl)C1(Cl)Cl` (centres undefined), the GI50 was 3.66 µM and the TGI stood at 12 µM.

In the case of `C=CC(=O)N1CCC(Oc2cc3c(Nc4ccc(Cl)c(Cl)c4F)ncnc3cc2OC)CC1`, the GI50 was 0.596 µM and 0.81 µM; the TGI was 2.76 µM and 3.87 µM.

As for `CC(=O)OC1OC([C@H]2c3cccc(O)c3C(=O)c3c(O)cc(C)cc32)C(O)C(O)C1O` (some centres undefined), the GI50 is below 0.0267 µM and the TGI came out at 0.346 µM.

In the case of `CNC(=O)OCc1c(COC(=O)NC)c(-c2ccc(-c3ccccc3)cc2)n(C)c1C`, the TGI came out at 2.91 µM.

Molecule `COc1cccc2c1C(=N)c1c(O)c3c(c(O)c1C2=O)C[C@@](O)(C(C)=O)C[C@@H]3O[C@H]1C[C@H](N)[C@H](O)[C@H](C)O1` came in with a TGI of 3.58 µM.

As for `Cc1cn(-c2cc(NC(=O)c3cccc(C#Cc4cccc5[nH]nc(N)c45)c3)cc(C(F)(F)F)c2)cn1`, the GI50 is 5.1 µM and the TGI turned out to be 21.6 µM.

Molecule `CN(C)CCC(=O)N1C/C(=C\c2ccc(Cl)c(Cl)c2)C(=O)/C(=C/c2ccc(Cl)c(Cl)c2)C1` displayed a TGI of 0.747 µM.

The next experiment has as its system SF-268 CNS. Put plainly: NCI anticancer screen, dose series, 48 h.
In the case of `C=C(C)[C@@H]1CC[C@]2(COCCCN)CC[C@]3(C)[C@H](CC[C@@H]4[C@@](C)(CCCNCCCN)[C@H](C(=C)C)CC[C@]43C)[C@@H]12`, the GI50 was 1.84 µM and the TGI turned out to be 3.72 µM.

The molecule `O=C(O)CSCCc1ccccc1` had a TGI above 100 µM.

`CCOC1C(Br)Cn2c(=O)c3cc4ccccc4cc3c(=O)n2C1C` (centres undefined) returned a TGI above 100 µM.

`COc1ccc(C(C#N)NC23CC4CC(CC(C4)C2)C3)cc1` (centres undefined) registered a TGI above 100 µM.

Molecule `COc1ccc(NC(=O)CC/C(CC(=O)c2ccco2)=N/NC(=O)C(N)=O)cc1` registered a TGI above 100 µM.

Turning to `CC(C)(C)c1cc([N+](=O)[O-])cc([N+](=O)[O-])c1O`, the TGI was above 10 µM.

`Cc1cc(N(CC(C)Br)CC(C)Br)ccc1N=Nc1ccccc1C(=O)O` (centres undefined) came in with a TGI above 38.8 µM.

For `CCN(CC)CCCC(CCl)Nc1ccnc2cc(Cl)ccc12` (centres undefined), the GI50 is 17.1 µM and 21.6 µM; the TGI is 49.8 µM and 97 µM.

Consider `COc1ccc2c(c1)C(=O)/C(=C/c1cccc(OCC(=O)c3ccccc3)c1)O2`, for which the GI50 was 4.25 µM and the TGI was determined as 16.6 µM.

Regarding `O=C(O)c1ccc(CN2CCC(CN[C@@H]3C[C@H]3c3ccccc3)CC2)cc1`, the GI50 was above 100 µM and the TGI is above 100 µM.
